Like-named read-outs stand apart in the source and are kept apart here.
How the values were obtained:
GSPT1 = GSPT1 (Homo sapiens (Human), UniProt P15170+Q96SW2); experiment: Western blot, substrate protein expression in hPBMC: GSPT1; type: cell-based; details: hPBMC, compound 500 nM, 24 hours, Western blot
How it was run: (§1)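 hPBMC, 1×10^6 cells/mL, 24 h compound exposure; RIPA lysis, BCA protein assay, SDS-PAGE, NC membrane immunoblot. Densitometry vs internal control → % protein remaining; degradation % = 100% − remaining; DC50 = conc. at 50% of DMSO band signal.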

[1] = biological target: human Cereblon WT GST-tagged protein (Homo sapiens (Human), UniProt Q96SW2); experiment: CRBN-binding affinity, HTRF (CEREBLON BINDING kit, CISBIO); details: HTRF inhibitory activity
How it was run: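 Compounds were mixed with GST-tagged human Cereblon WT protein, then with Thalidomide-Red tracer and GST Eu antibody, and binding was read by HTRF. Inhibition rate was calculated from 620 nm emission relative to blank control wells (no protein) and solvent control wells.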

IKZF1 = IKZF1 (Homo sapiens (Human), UniProt Q13422+Q96SW2); experiment: Western blot, substrate protein expression in hPBMC: IKZF1; type: cell-based; details: hPBMC, compound 500 nM, 24 hours, Western blot
How it was run: as §1

IKZF3 = IKZF3 (Homo sapiens (Human), UniProt Q96SW2+Q9UKT9); experiment: Western blot, substrate protein expression in hPBMC: IKZF3; type: cell-based; details: hPBMC, compound 500 nM, 24 hours, Western blot
How it was run: as §1

[2] = tested on: MM.1S cells (human multiple myeloma cells); experiment: Tumor cell proliferation inhibition, CCK-8; type: cell-based; details: MM1.S
How it was run: (§2)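 Cells were seeded, left for 24 h, then exposed to compound at 10 concentrations from a top of 10 μM in 5-fold serial dilutions. Viability was then read with CCK-8 reagent, and IC50 values came from the growth-inhibition curves.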

[3] = tested on: CCRF-CEM (human acute lymphoblastic leukemia T-cells); experiment: Tumor cell proliferation inhibition, CCK-8; type: cell-based
How it was run: as §2

[4] = tested on: MM.1R cells (dexamethasone-resistant human multiple myeloma cells); experiment: Tumor cell proliferation inhibition, CCK-8; type: cell-based
How it was run: as §2

[5] = tested on: Kasumi-1 (human acute myeloid leukemia cells); experiment: Tumor cell proliferation inhibition, CCK-8; type: cell-based
How it was run: as §2

[6] = tested on: CAL-62 (human thyroid carcinoma cells); experiment: Tumor cell proliferation inhibition, CCK-8; type: cell-based
How it was run: as §2

[7] = tested on: TMD8 cells (human diffuse large B-cell lymphoma cells); experiment: Tumor cell proliferation inhibition, CCK-8; type: cell-based
How it was run: as §2

[8] = tested on: Jurkat cells (human T-cell leukemia cells); experiment: Tumor cell proliferation inhibition, CCK-8; type: cell-based
How it was run: as §2

[9] = tested on: H146 cells (human small cell lung carcinoma cells); experiment: Tumor cell proliferation inhibition, CCK-8; type: cell-based
How it was run: as §2

[10] = tested on: MDA-MB-231 cells (human breast adenocarcinoma cells); experiment: Tumor cell proliferation inhibition, CCK-8; type: cell-based
How it was run: as §2

[11] = MM.1S cells, CCK-8, read-out: inhibitory activity (IC50, nM) MM.1S
[12] = CCRF-CEM cells, CCK-8, read-out: inhibitory activity (IC50, nM) CCRF-CEM
[13] = MM.1R cells, CCK-8, read-out: inhibitory activity (IC50, nM) MM.1R
[14] = Kasumi-1 cells, CCK-8, read-out: inhibitory activity (IC50, nM) Kasumi-1
[15] = CAL-62 cells, CCK-8, read-out: inhibitory activity (IC50, nM) CAL-62
[16] = TMD8 cells, CCK-8, read-out: inhibitory activity (IC50, nM) TMD8
[17] = Jurkat cells, CCK-8, read-out: inhibitory activity (IC50, nM) Jurkat
[18] = NCI-H146, H146 cells, CCK-8, read-out: inhibitory activity (IC50, nM) H146
[19] = MDA-MB-231 cells, CCK-8, read-out: inhibitory activity (IC50, nM) MDA-MB-231

Chain of GSPT1 (P15170 whole entry): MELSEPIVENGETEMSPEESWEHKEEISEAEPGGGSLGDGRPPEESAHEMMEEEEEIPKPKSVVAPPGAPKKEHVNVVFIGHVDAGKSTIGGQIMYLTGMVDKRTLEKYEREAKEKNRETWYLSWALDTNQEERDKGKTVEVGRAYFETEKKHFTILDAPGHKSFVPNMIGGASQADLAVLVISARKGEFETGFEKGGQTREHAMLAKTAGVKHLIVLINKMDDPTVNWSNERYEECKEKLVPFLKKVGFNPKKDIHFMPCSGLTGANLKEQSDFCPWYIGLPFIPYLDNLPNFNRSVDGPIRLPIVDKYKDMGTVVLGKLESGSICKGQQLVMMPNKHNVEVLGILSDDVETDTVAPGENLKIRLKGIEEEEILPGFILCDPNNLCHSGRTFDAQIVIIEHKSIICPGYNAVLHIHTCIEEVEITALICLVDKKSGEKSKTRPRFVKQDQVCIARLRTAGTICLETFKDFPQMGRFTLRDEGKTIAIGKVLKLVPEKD
Chain of GSPT1 (Q96SW2 whole entry): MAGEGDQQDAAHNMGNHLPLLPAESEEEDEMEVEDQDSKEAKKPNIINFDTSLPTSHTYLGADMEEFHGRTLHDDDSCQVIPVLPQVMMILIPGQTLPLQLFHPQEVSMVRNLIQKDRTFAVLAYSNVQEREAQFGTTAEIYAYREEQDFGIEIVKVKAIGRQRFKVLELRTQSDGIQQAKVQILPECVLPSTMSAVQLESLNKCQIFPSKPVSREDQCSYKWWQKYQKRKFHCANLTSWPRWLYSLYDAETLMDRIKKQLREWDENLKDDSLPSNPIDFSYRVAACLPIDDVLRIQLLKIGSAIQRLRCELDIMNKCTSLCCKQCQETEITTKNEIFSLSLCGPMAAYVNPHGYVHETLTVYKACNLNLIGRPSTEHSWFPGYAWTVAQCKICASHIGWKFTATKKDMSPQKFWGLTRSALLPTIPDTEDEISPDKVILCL
Chain of GSPT1 (Q16531 whole entry partner): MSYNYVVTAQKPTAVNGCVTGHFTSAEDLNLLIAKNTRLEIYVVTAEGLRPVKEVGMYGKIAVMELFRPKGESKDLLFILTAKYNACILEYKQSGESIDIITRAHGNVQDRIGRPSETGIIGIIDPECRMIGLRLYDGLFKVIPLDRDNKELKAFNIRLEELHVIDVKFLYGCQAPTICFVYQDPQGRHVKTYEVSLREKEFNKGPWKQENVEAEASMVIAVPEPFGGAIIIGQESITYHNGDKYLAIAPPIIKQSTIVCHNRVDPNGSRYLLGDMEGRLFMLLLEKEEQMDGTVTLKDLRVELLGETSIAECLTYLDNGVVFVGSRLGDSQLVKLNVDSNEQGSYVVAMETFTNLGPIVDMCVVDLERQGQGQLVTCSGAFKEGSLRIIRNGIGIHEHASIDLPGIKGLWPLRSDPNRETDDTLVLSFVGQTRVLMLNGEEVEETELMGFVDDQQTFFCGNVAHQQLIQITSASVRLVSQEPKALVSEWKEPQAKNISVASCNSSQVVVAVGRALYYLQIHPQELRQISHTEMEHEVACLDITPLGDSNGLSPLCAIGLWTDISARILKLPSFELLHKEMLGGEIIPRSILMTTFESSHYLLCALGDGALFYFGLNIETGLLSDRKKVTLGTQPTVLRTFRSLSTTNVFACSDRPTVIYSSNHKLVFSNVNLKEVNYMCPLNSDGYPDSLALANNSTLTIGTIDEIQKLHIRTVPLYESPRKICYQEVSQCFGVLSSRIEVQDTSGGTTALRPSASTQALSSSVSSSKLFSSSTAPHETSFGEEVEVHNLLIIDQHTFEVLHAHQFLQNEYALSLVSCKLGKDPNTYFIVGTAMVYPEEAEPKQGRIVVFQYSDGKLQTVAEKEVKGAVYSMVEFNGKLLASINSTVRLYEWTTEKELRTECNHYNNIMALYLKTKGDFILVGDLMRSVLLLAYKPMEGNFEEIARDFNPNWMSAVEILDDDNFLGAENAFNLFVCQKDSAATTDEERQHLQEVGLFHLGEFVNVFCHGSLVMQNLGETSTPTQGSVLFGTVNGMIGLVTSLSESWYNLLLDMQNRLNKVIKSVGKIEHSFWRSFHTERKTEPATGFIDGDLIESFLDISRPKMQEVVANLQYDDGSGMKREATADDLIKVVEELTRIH
Chain of IKZF3 (Q9UKT9 whole entry): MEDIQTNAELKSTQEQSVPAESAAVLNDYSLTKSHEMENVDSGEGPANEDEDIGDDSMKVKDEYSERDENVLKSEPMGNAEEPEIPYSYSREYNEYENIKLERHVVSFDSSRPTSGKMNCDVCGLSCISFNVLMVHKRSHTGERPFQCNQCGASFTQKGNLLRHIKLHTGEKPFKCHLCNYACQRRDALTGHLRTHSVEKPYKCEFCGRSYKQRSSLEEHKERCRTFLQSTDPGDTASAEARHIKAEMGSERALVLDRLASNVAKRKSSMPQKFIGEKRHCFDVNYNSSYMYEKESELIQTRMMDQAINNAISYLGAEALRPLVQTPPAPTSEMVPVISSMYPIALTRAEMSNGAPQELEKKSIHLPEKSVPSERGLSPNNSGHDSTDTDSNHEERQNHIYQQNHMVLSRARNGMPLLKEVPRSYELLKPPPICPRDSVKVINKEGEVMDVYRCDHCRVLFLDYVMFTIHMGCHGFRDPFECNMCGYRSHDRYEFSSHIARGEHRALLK
Chain of IKZF3 (Q96SW2 whole entry): as the sequence (Q96SW2 whole entry) above
Chain of IKZF3 (Q16531 whole entry partner): as the sequence (Q16531 whole entry partner) above
Chain of IKZF1 (Q13422 whole entry): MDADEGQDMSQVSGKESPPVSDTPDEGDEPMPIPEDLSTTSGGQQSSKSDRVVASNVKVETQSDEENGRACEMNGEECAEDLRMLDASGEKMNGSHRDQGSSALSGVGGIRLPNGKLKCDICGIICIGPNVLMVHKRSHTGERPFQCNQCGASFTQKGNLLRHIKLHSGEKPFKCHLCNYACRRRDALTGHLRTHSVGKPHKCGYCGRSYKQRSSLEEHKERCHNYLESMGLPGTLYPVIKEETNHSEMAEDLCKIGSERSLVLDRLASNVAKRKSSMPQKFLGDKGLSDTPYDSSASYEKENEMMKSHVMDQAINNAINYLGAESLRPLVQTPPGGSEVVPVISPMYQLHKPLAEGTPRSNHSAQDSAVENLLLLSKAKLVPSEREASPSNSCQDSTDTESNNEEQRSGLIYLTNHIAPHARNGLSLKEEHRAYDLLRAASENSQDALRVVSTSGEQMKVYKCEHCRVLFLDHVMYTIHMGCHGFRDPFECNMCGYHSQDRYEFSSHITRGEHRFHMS
Chain of IKZF1 (Q96SW2 whole entry): as the sequence (Q96SW2 whole entry) above
Chain of IKZF1 (Q16531 whole entry partner): as the sequence (Q16531 whole entry partner) above
Chain of human Cereblon WT GST-tagged protein (Q96SW2 whole entry): as the sequence (Q96SW2 whole entry) above

Compound	IC50 [1]	IC50 [2, 11]	IC50 [3, 12]	IC50 [4, 13]	IC50 [5, 14]	IC50 [6, 15]	IC50 [8, 17]	IC50 [9, 18]	IC50 [10, 19]	substrate protein remaining % GSPT1 (GSPT1)	substrate protein remaining % IKZF1 (IKZF1)	substrate protein remaining % IKZF3 (IKZF3)	other results
O=C1CCC(N2Cc3cc(CN4CCN(C(c5ccccc5)c5ccccc5)CC4)cc(F)c3C2=O)C(=O)N1 (centres unmarked) [GT-03467, 3-(5-((4-benzhydrylpiperazin-1-yl)methyl)-7-fluoro-1-oxoisoindolin-2-yl)piperidine-2,6-dione]	0.5 to 1 µM	100 to 500 nM	10 to 50 nM		50 to 100 nM				100 to 500 nM				
O=C1CCC(N2Cc3cc(CN4CCN(C(c5ccc(Cl)cc5)c5ccc(Cl)cc5)CC4)ccc3C2=O)C(=O)N1 (centres unmarked) [GT-03566, 3-(5-((4-(bis(4-chlorophenyl)methyl)piperazin-1-yl)methyl)-1-oxoisoindolin-2-yl)piperidine-2,6-dione]	1 to 1.9 µM	500 to 1000 nM	10 to 50 nM	100 to 500 nM						A (A represents 0% ≤ substrate protein remaining % ≤ 50%)	A (A represents 0% ≤ substrate protein remaining % ≤ 50%)	A (A represents 0% ≤ substrate protein remaining % ≤ 50%)	
O=C1CCC(N2Cc3cc(CN4CCN(C(c5ccc(Cl)cc5)c5ccc(Cl)cc5)CC4)c(F)cc3C2=O)C(=O)N1 (centres unmarked) [GT-03699, 3-(5-((4-(bis(4-chlorophenyl)methyl)piperazin-1-yl)methyl)-6-fluoro-1-oxoisoindolin-2-yl)piperidine-2,6-dione]		50 to 100 nM	10 to 50 nM	50 to 100 nM		50 to 100 nM				A (A represents 0% ≤ substrate protein remaining % ≤ 50%)	B (B represents substrate protein remaining % > 50%)	A (A represents 0% ≤ substrate protein remaining % ≤ 50%)	
O=C1CCC(N2Cc3cc(CN4C5CCC4CN(C(c4ccccc4)c4ccccc4)C5)ccc3C2=O)C(=O)N1 (centres unmarked) [GT-03837, 3-(5-((3-benzhydryl-3,8-diazabicyclo[3.2.1]octan-8-yl)methyl)-1-oxoisoindolin-2-yl)piperidine-2,6-dione]	< 0.5 µM	10 to 50 nM		500 to 1000 nM						A (A represents 0% ≤ substrate protein remaining % ≤ 50%)	B (B represents substrate protein remaining % > 50%)	A (A represents 0% ≤ substrate protein remaining % ≤ 50%)	
O=C1CCC(N2Cc3cc(CN4C5CCC4CN(C(c4ccccc4)c4ccccc4)C5)c(F)cc3C2=O)C(=O)N1 (centres unmarked) [GT-03839, 3-(5-((3-benzhydryl-3,8-diazabicyclo[3.2.1]octan-8-yl)methyl)-6-fluoro-1-oxoisoindolin-2-yl)piperidine-2,6-dione]	1 to 1.9 µM	10 to 50 nM	10 to 50 nM	10 to 50 nM	10 to 50 nM	10 to 50 nM		500 to 1000 nM	50 to 100 nM	A (A represents 0% ≤ substrate protein remaining % ≤ 50%)	B (B represents substrate protein remaining % > 50%)	A (A represents 0% ≤ substrate protein remaining % ≤ 50%)	
O=C1CCC(N2Cc3cc(CN4CCN([C@@H](c5ccccc5)c5ccccn5)CC4)ccc3C2=O)C(=O)N1 (stereo partly drawn) [GT-04524, 3-(1-oxo-5-((4-((S)-phenyl(pyridin-2-yl)methyl)piperazin-1-yl)methyl)isoindolin-2-yl)piperidine-2,6-dione]	0.5 to 1 µM	10 to 50 nM		10 to 50 nM		10 to 50 nM	10 to 50 nM	100 to 500 nM	500 to 1000 nM	A (A represents 0% ≤ substrate protein remaining % ≤ 50%)	A (A represents 0% ≤ substrate protein remaining % ≤ 50%)	A (A represents 0% ≤ substrate protein remaining % ≤ 50%)	
Nc1cccc2c1CN(C1CCC(=O)NC1=O)C2=O (centres unmarked) [lenalidomide, reference compound]													IC50 ([2]; read-out: inhibitory activity (IC50, nM) MM.1S): > 10000 nM; IC50 ([3]; CCRF-CEM, read-out: inhibitory activity (IC50, nM) CCRF-CEM): > 10000 nM; IC50 ([4]; MM.1R, read-out: inhibitory activity (IC50, nM) MM.1R): > 10000 nM; IC50 ([5]; Kasumi 1, read-out: inhibitory activity (IC50, nM) Kasumi-1): > 10000 nM; IC50 ([6]; CAL-62, read-out: inhibitory activity (IC50, nM) CAL-62): > 10000 nM; IC50 ([7]; TMD8, read-out: inhibitory activity (IC50, nM) TMD8): > 10000 nM; IC50 ([8]; Jurkat, read-out: inhibitory activity (IC50, nM) Jurkat): > 10000 nM; IC50 ([9]; NCI-H146, read-out: inhibitory activity (IC50, nM) H146): > 10000 nM; IC50 ([10]; MDA-MB-231, read-out: inhibitory activity (IC50, nM) MDA-MB-231): > 10000 nM
Nc1cccc2c1C(=O)N(C1CCC(=O)NC1=O)C2=O (centres unmarked) [pomalidomide, reference compound]		500 to 1000 nM	5000 to 10000 nM	> 10000 nM	> 10000 nM	> 10000 nM	> 10000 nM	> 10000 nM	> 10000 nM				IC50 [7, 16]: 5000 to 10000 nM

Continued, in another order:

IC50 [1]	IC50 [2, 11]	IC50 [3, 12]	IC50 [4, 13]	IC50 [5, 14]	IC50 [6, 15]	IC50 [8, 17]	IC50 [9, 18]	IC50 [10, 19]	Compound	substrate protein remaining % GSPT1 (GSPT1)	substrate protein remaining % IKZF1 (IKZF1)	substrate protein remaining % IKZF3 (IKZF3)	other results
0.5 to 1 µM	1 to 10 nM	< 1 nM	< 1 nM	< 1 nM	< 1 nM	1 to 10 nM	10 to 50 nM	1 to 10 nM	O=C1CCC(N2Cc3cc(CN4CCN(C(c5ccccc5)c5ccccc5)CC4)ccc3C2=O)C(=O)N1 (centres unmarked) [GT-03245, 3-(5-((4-benzhydrylpiperazin-1-yl)methyl)-1-oxoisoindolin-2-yl)piperidine-2,6-dione]	A (A represents 0% ≤ substrate protein remaining % ≤ 50%)	A (A represents 0% ≤ substrate protein remaining % ≤ 50%)	A (A represents 0% ≤ substrate protein remaining % ≤ 50%)	IC50 [7, 16]: 10 to 50 nM
< 0.5 µM	10 to 50 nM	1 to 10 nM	10 to 50 nM	50 to 100 nM	10 to 50 nM	100 to 500 nM	100 to 500 nM	50 to 100 nM	O=C1CCC(N2Cc3cc(CN4CCN(C(c5cccc(F)c5)c5cccc(F)c5)CC4)cc(F)c3C2=O)C(=O)N1 (centres unmarked) [GT-03704, 3-(5-((4-(bis(3-fluorophenyl)methyl)piperazin-1-yl)methyl)-7-fluoro-1-oxoisoindolin-2-yl)piperidine-2,6-dione]	A (A represents 0% ≤ substrate protein remaining % ≤ 50%)	B (B represents substrate protein remaining % > 50%)	A (A represents 0% ≤ substrate protein remaining % ≤ 50%)	
< 0.5 µM	10 to 50 nM	10 to 50 nM	10 to 50 nM						O=C1CCC(N2Cc3c(ccc(CN4C[C@@H]5C[C@H]4CN5C(c4ccccc4)c4ccccc4)c3F)C2=O)C(=O)N1 (stereo partly drawn) [GT-03724, 3-(5-(((1S,4S)-5-benzhydryl-2,5-diazabicyclo[2.2.1]heptan-2-yl)methyl)-4-fluoro-1-oxoisoindolin-2-yl)piperidine-2,6-dione]	A (A represents 0% ≤ substrate protein remaining % ≤ 50%)	A (A represents 0% ≤ substrate protein remaining % ≤ 50%)	A (A represents 0% ≤ substrate protein remaining % ≤ 50%)	
0.5 to 1 µM	1 to 10 nM		1 to 10 nM		1 to 10 nM	50 to 100 nM	10 to 50 nM	50 to 100 nM	O=C1CCC(N2Cc3cc(CN4CCN([C@H](c5ccccc5)c5ccccn5)CC4)ccc3C2=O)C(=O)N1 (stereo partly drawn) [GT-04523, 3-(1-oxo-5-((4-((R)-phenyl(pyridin-2-yl)methyl)piperazin-1-yl)methyl)isoindolin-2-yl)piperidine-2,6-dione]	A (A represents 0% ≤ substrate protein remaining % ≤ 50%)	A (A represents 0% ≤ substrate protein remaining % ≤ 50%)	A (A represents 0% ≤ substrate protein remaining % ≤ 50%)	IC50 [7, 16]: 500 to 1000 nM

Source: US20250320193A1, “OXOISOINDOLINYL SUBSTITUTED PIPERIDINEDIONE DERIVATIVE AND USE THEREOF” (GLUETACS THERAPEUTICS (SHANGHAI) CO., LTD., priority 2022, published 2025)
